Columns and labels:
UGT2B17 = target: T1, UGT2B17 (Homo sapiens, UniProt O75795); assay: Glucuronidation assay, UGT2B17-overexpressing HEK293 cell homogenate; format: in vitro ADME; conditions: UGT2B17; up to 600 μM substrate
T1 construct: expressed in transfected cells; host or cells: HEK293
T1 sequence (O75795 24-530): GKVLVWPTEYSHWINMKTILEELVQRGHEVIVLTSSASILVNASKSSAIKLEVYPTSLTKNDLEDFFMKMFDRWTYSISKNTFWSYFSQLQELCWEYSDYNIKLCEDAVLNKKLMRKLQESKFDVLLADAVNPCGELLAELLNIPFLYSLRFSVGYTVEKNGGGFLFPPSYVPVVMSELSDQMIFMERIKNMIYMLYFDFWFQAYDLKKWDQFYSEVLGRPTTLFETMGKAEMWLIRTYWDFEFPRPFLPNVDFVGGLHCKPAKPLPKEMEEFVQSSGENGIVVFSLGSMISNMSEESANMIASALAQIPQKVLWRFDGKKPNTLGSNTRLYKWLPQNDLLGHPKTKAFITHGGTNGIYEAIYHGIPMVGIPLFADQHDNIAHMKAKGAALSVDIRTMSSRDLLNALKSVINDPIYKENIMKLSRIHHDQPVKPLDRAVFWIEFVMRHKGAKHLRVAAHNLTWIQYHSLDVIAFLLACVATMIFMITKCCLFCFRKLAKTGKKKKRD

UGT1A8 = target: T2, UGT1A8 (Homo sapiens, UniProt Q9HAW9); assay: Glucuronidation assay, UGT1A8-overexpressing HEK293 cell homogenate; format: in vitro ADME; conditions: up to 600 μM substrate
T2 construct: expressed in transfected cells; host or cells: HEK293
T2 sequence (Q9HAW9 26-530): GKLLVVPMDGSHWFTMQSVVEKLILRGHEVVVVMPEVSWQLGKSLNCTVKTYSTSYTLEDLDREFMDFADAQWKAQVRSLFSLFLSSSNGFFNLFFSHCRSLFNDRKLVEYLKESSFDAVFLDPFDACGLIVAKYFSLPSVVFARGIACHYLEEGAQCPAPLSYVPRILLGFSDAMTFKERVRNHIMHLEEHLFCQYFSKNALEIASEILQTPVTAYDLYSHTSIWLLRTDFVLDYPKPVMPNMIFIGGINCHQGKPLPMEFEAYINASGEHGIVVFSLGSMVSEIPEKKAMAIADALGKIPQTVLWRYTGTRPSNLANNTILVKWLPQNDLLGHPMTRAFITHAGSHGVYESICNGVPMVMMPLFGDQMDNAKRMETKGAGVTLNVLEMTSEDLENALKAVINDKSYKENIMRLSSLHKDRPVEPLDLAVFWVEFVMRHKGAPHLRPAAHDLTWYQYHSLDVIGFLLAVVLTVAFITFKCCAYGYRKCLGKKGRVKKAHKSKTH

UGT1A4^24Pro/48Leu = target: T3, UGT1A4^24Pro/48Leu (Homo sapiens, UniProt P22310); assay: Glucuronidation assay, UGT1A4 24Pro/48Leu-overexpressing HEK293 cell homogenate; format: in vitro ADME; conditions: UGT 1A4 as worded in text; up to 600 μM substrate
T3 construct: expressed in transfected cells; host or cells: HEK293
T3 sequence (P22310 29-534): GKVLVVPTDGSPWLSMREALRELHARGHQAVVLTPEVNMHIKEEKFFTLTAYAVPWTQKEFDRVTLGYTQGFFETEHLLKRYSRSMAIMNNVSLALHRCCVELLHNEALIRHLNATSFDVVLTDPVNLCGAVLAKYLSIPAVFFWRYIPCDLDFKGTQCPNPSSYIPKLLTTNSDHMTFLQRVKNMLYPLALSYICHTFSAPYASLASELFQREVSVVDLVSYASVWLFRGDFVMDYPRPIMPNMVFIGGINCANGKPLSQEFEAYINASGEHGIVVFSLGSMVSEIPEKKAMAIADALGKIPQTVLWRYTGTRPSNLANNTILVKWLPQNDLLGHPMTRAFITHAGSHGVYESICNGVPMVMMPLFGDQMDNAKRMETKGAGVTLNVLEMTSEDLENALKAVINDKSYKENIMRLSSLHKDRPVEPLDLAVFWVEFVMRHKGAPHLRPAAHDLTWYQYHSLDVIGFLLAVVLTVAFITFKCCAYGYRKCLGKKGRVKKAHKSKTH

[1] = Kinetic analysis of glucuronidation by individual HLM from UGT2B17 (*1/*1) subjects; format: in vitro ADME, human; conditions: human, liver microsomes of UGT2B17 (*1/*1) subjects
[2] = test system: human liver microsomes (HLM), UGT2B17 (*1/*1) genotype; assay: as above; format: in vitro ADME; conditions: per mg HLM protein
UGT1A4^24Thr/48Leu = assay: Glucuronidation assay, UGT1A4 24Thr/48Leu-overexpressing HEK293 cell homogenate; format: in vitro ADME, human; conditions: normalized per μg UGT protein by Western blot
UGT1A4 24Thr/48Leu = assay: as above; format: in vitro ADME, human; conditions: human, pH 7.4
[3] = test system: human liver microsomes (HLM); assay: Rate of exemestane-17-O-glucuronide formation in a series of 110 HLM by UGT2B17 genotype; format: in vitro ADME; conditions: 9.4 μM 17-dihydroexemestane, p<0.001
[4] = Kinetic analysis of glucuronidation by individual HLM from UGT2B17 (*2/*2) subjects; format: in vitro ADME, human; conditions: human, liver microsomes of UGT2B17 (*2/*2) subjects
[5] = test system: human liver microsomes (HLM), UGT2B17 (*2/*2) genotype; assay: as above; format: in vitro ADME; conditions: per mg HLM protein
UGT1A10 = target: T4, UGT1A10 (Homo sapiens, UniProt Q9HAW8); assay: Glucuronidation assay, UGT1A10-overexpressing HEK293 cell homogenate; format: in vitro ADME; conditions: UGT1A10; up to 600 μM substrate
T4 construct: expressed in transfected cells; host or cells: HEK293
T4 sequence (Q9HAW8 26-530): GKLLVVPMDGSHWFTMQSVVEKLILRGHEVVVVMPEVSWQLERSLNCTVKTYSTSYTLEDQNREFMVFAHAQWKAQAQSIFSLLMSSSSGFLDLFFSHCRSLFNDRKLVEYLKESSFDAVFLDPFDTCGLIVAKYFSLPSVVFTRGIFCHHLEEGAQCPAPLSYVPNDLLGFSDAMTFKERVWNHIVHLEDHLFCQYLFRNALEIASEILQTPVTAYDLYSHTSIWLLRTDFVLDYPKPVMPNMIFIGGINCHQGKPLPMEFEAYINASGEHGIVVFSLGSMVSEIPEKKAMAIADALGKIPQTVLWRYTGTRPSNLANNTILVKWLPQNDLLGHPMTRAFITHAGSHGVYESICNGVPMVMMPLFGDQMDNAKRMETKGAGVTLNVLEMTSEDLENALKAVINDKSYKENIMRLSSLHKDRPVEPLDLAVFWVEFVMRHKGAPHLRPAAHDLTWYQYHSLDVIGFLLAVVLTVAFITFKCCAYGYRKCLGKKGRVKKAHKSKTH

[6] = test system: UGTs 1A1, 1A3, 1A6, 1A7, 1A9, 2B4, 2B7, 2B10, 2B11, 2B15; assay: Screening of the other UGT-overexpressing HEK293 cell homogenates for glucuronidation activity; format: in vitro ADME, human; conditions: other UGTs screened; up to 1 mg of UGT overexpressing cell homogenate

C=C1C[C@@H]2[C@H](CC[C@]3(C)C(O)CC[C@@H]23)[C@@]2(C)C=CC(=O)C=C12 (stereo partly shown) [17-dihydroexemestane]
glucuronidation activity in UGT screen (UGT2B17): detectable activity | glucuronidation activity in UGT screen (UGT1A8): detectable activity | glucuronidation activity in UGT screen (UGT1A4^24Pro/48Leu): detectable activity | Km at 60 min ([1]; pH 7.4, HLM # 972, UGT2B17 (*1/*1), read-out: KM): 10.6 µM | Km at 60 min ([1]; pH 7.4, HLM # 1183, UGT2B17 (*1/*1), read-out: KM): 7.2 µM | Km at 60 min ([1]; pH 7.4, HLM # 1392, UGT2B17 (*1/*1), read-out: KM): 7.1 µM | Km at 60 min ([1]; pH 7.4, HLM # 2412, UGT2B17 (*1/*1), read-out: KM): 6.7 µM | Km at 60 min ([1]; pH 7.4, mean of five UGT2B17 (*1/*1) HLM, read-out: KM, mean ± S.D.): 7.3 ± 2 µM | Vmax ([2]; HLM # 972, UGT2B17 (*1/*1)): 51.6 pmol/min/mg | Vmax ([2]; HLM # 1183, UGT2B17 (*1/*1)): 322 pmol/min/mg | Vmax ([2]; HLM # 1392, UGT2B17 (*1/*1)): 393 pmol/min/mg | Vmax ([2]; HLM # 2167, UGT2B17 (*1/*1)): 38.9 pmol/min/mg | Vmax ([2]; HLM # 2412, UGT2B17 (*1/*1)): 213 pmol/min/mg | Vmax, mean ± S.D. ([2]; mean of five UGT2B17 (*1/*1) HLM): 204 ± 158 pmol/min/mg | Vmax (UGT1A4^24Thr/48Leu): 0.26 ± 0.04 pmol · min^−1 · μg UGT protein^−1 | Km at 60 min (UGT1A4 24Thr/48Leu): 28 ± 7.8 µM | decrease in glucuronidation activity in HLM (*2/*2) compared with HLM (*1/*1) [3]: 14 fold | Km at 60 min ([4]; pH 7.4, HLM # 383, UGT2B17 (*2/*2), read-out: KM): 9.3 µM | Km at 60 min ([4]; pH 7.4, HLM # 416, UGT2B17 (*2/*2), read-out: KM): 17 µM | Km at 60 min ([4]; pH 7.4, HLM # 2174, UGT2B17 (*2/*2), read-out: KM): 12.4 µM | Km at 60 min ([4]; pH 7.4, HLM # 2175, UGT2B17 (*2/*2), read-out: KM): 13 µM | Km at 60 min ([4]; pH 7.4, HLM # 3873, UGT2B17 (*2/*2), read-out: KM): 11 µM | Km at 60 min ([4]; pH 7.4, mean of five UGT2B17 (*2/*2) HLM, read-out: KM, mean ± S.D.): 12.8 ± 3 µM | Vmax ([5]; HLM # 383, UGT2B17 (*2/*2)): 17.0 pmol/min/mg | Vmax ([5]; HLM # 416, UGT2B17 (*2/*2)): 5.6 pmol/min/mg | Vmax ([5]; HLM # 2174, UGT2B17 (*2/*2)): 13.0 pmol/min/mg | Vmax ([5]; HLM # 2175, UGT2B17 (*2/*2)): 2.3 pmol/min/mg | Vmax ([5]; HLM # 3873, UGT2B17 (*2/*2)): 8.1 pmol/min/mg | Vmax, mean ± S.D. ([5]; mean of five UGT2B17 (*2/*2) HLM): 9.2 ± 5.9 pmol/min/mg | glucuronidation activity in UGT screen (UGT1A10): detectable activity | glucuronidation activity in UGT screen [6]: None of the other UGTs screened in assays described herein exhibited any glucuronidation activity
